Source: patent US6599943B1, “Use of hydroxyguanidines” (WaPharm AB, priority 1996, dated 2003)
Where a name gives a salt, the structure may show the parent alone.

What follows are compounds tested against bovine milk xanthine oxidase (Bos taurus, UniProt P80457) (assay: Capacity to sustain oxidation of xanthine by xanthine oxidase in the absence of oxygen, spectrophotometric). Settings: 50 μM hydroxyguanidine, 50 μM xanthine, 0.05 units/ml xanthine oxidase, anaerobic, pH 7.5, 20° C., blank subtracted.
bovine milk xanthine oxidase, sequence (P80457 whole entry): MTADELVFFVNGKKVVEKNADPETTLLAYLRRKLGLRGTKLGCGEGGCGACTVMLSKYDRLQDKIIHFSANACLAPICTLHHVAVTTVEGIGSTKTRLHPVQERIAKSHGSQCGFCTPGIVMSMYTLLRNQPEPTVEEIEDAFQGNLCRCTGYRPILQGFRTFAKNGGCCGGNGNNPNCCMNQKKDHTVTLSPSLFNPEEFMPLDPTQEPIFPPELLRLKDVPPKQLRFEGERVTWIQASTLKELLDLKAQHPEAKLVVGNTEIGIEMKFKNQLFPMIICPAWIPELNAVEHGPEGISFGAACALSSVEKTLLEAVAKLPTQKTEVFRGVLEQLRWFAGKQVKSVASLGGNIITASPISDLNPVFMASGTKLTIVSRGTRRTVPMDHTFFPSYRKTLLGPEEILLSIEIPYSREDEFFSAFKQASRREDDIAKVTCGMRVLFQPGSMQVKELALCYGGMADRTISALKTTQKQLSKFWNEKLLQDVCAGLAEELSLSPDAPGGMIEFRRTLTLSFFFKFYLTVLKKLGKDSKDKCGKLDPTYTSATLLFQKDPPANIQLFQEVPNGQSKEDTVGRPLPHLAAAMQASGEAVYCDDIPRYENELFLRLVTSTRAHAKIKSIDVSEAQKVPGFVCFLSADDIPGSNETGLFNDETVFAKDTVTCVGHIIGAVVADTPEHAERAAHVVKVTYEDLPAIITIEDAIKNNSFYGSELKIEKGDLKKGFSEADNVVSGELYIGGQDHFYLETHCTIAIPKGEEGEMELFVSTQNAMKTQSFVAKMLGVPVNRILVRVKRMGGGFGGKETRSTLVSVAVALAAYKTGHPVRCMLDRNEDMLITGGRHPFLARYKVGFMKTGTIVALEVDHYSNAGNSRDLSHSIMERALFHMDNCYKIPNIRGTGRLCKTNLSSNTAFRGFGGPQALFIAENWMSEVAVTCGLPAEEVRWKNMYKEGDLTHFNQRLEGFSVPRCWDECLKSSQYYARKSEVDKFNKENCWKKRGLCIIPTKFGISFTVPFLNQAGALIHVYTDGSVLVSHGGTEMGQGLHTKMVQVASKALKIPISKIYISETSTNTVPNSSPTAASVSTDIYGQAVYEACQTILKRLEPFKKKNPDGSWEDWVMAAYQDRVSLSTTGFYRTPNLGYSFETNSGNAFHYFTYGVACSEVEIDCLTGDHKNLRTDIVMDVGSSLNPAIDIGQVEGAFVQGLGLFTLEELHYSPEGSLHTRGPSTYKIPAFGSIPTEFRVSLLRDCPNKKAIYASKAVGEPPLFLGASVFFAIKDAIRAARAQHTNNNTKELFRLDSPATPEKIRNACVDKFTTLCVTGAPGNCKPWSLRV
Type: biochemical
Design: host or cells: bovine milk
Procedure: Capacities of a series of hydroxyguanidine to sustain the oxidation of xanthine by xanthine oxidase in the absence of oxygen. The capacities of various hydroxyguanidines to sustain the oxidation of xanthine was assayed by using a spectrophotometric method. In this method bovine milk xanthine oxidase was injected to a Helma® sealable cuvette for anaerobic application thereby creating 1 ml of a reaction mixture that contained reagents as follows: 50 μM of a hydroxyguanidine, 50 μM xanthine, 0.05 units/ml bovine milk xanthine oxidase, 50 mM Tris and 1.5 mM EDTA; the pH of the reaction mixture being 7.5, and the temperature 20° C. Anaerobic conditions were assured by pre-gassing all solutions used for 5-10 min, with nitrogen. The rate of formation of uric acid was monitored spectrophotometrically by measuring the increase in absorbance at 295 nm (the absorption maximum for uric acid) at intervals. The relative capacities of the hydroxyguanidines to sustain oxidation of xanthine were estimated from the derivative of the initial linear phase of the curves. To obtain blank readings an equal volume of the solvent of the hydroxyguanidine (water) was added to the reaction mixture in separate experiments and the initial rate of absorbance change was substracted from the rate readings of the tested hydroxyguanidine.
Exemplary initial rates for the rate of the support of the oxidation of xanthine obtained by assaying the exemplary hydroxyguanidines listed above by the method in the present example are furthermore given in Table 2: […]

Structure (SMILES) | V = 1000 × (Δabs 295 nm) min^−1 (initial rate of the support of the oxidation of xanthine)
N=C(NN)NO [Aminohydroxyguanidine, 1-amino-3-hydroxyguanidine, reference compound] | 1.4 1000 × (Δabs 295 nm) min^−1
COc1ccc(/C=N/NC(=N)NO)cc1OC [DWO1, reference compound] | 40 1000 × (Δabs 295 nm) min^−1
COc1ccc(/C=N/NC(=N)NO)c(OC)c1C [DWO2, reference compound] | 30.7 1000 × (Δabs 295 nm) min^−1
COc1ccc(/C=N/NC(=N)NO)c(OC)c1 [DWO3, reference compound] | 29.4 1000 × (Δabs 295 nm) min^−1
COc1ccc(/C=N/NC(=N)NO)cc1O [DWO4, reference compound] | 36.7 1000 × (Δabs 295 nm) min^−1
COc1ccc(/C=N/NC(=N)NO)c(Cl)c1O [DWO5, reference compound] | 59.7 1000 × (Δabs 295 nm) min^−1
COc1cc(Br)c(/C=N/NC(=N)NO)cc1OC [DWO6, reference compound] | 30.7 1000 × (Δabs 295 nm) min^−1
COc1ccc(/C=N/NC(=N)NO)cc1F [DWO7, reference compound] | 30.7 1000 × (Δabs 295 nm) min^−1
COc1cc(/C=N/NC(=N)NO)c([N+](=O)[O-])cc1OC [DWO8, reference compound] | 45.4 1000 × (Δabs 295 nm) min^−1
COc1ccc(C=NNC(=N)NO)cc1Br [EN10, N-(3-Bromo-4-methoxybenzylideneamino)-N′-hydroxyguanidine tosylate] | 22 1000 × (Δabs 295 nm) min^−1
N=C(NO)NN=Cc1ccc(C(F)(F)F)cc1 [EN12, N-(4-Trifluoromethylbenzylideneamino)-N′-hydroxyguanidine tosylate] | 11 1000 × (Δabs 295 nm) min^−1
N=C(NO)N/N=C\C=C/c1ccccc1 [EN16, N-(3-Phenylpropenyleneamino)-N′-hydroxyguanidine tosylate] | 66 1000 × (Δabs 295 nm) min^−1
Cc1cc2oc(/C=N/NC(=N)NO)cc(=O)c2cc1Cl [EN18, N-(6-Chloro-7-methyl-4oxo-4H-1-benzopyran-3-methyleneamino)-N′-hydroxyguanidine tosylate] | 5 1000 × (Δabs 295 nm) min^−1
CC(=C/c1ccccc1)/C=N/NC(=N)NO [EN20] | 44 1000 × (Δabs 295 nm) min^−1
N=C(N)NO [Hydroxyguanidine, N-hydroxyguanidine] | 0.7 1000 × (Δabs 295 nm) min^−1
N=C(NO)N/N=C1\C(=O)Nc2ccc(F)cc21 [LT5, reference compound] | 50 1000 × (Δabs 295 nm) min^−1
CCCCCCOc1cccc(/C=N/NC(=N)NO)c1 [LT7, reference compound] | 12 1000 × (Δabs 295 nm) min^−1
N=C(NO)N/N=C/C1CCCCC1 [LT10, reference compound] | 3 1000 × (Δabs 295 nm) min^−1

Structure (SMILES) | V = 1000 × (Δabs 295 nm) min^−1 (initial rate of the support of the oxidation of xanthine)
COc1cccc(/C=N/NC(=N)NO)c1 [LT11, reference compound] | 26 1000 × (Δabs 295 nm) min^−1
N=C(NO)N/N=C/c1c2ccccc2c(Cl)c2ccccc12 [LW01, reference compound] | 0 1000 × (Δabs 295 nm) min^−1
N=C(NO)N/N=C/c1ccc2c(c1)OCCO2 [LW04, reference compound] | 55 1000 × (Δabs 295 nm) min^−1
N=C(NO)N/N=C/c1ccc(/C=N/NC(=N)NO)cc1 [PR1, 1,4-Bis(N-Hydroxyguanidinoiminomethyl)Benzene Bromide] | 63 1000 × (Δabs 295 nm) min^−1
N=C(NO)NN=C(c1ccccc1)c1ccccc1 [PR2, N-(Diphenylmethyleneamino)-N′-Hydroxyguanidine Bromide] | 1 1000 × (Δabs 295 nm) min^−1
N=C(NO)NN=C1CCCCC1 [PR4, N-(Cyclohexylideneamino)-N′-Hydroxyguanidine Tosylate] | 7 1000 × (Δabs 295 nm) min^−1
ONc1ncn[nH]1 [PR6, 3-Hydroxyimino-1,2,4-triazole tosylate] | 4 1000 × (Δabs 295 nm) min^−1
N=C(NO)N/N=C/c1cccc(/C=N/NC(=N)NO)c1 [PR8, 1,3-Bis(N-hydroxyguanidinoiminomethyl)benzene tosylate chloride] | 29 1000 × (Δabs 295 nm) min^−1
CC(C)CC=NNC(=N)NO [PR10, N-(3-Methylbutylideneamino)-N′-hydroxyguanidine tosylate] | −1 1000 × (Δabs 295 nm) min^−1
COc1ccc(/C(C)=N/NC(=N)NO)cc1OC [PR11, 3,4-Dimethoxyacetophenone-N-hydroxyguanyl-hydrazone tosylate] | 12 1000 × (Δabs 295 nm) min^−1
N=C(NO)NN=Cc1ccco1 [PR12, N-(Furyl-2-methyleneamino)-N′-hydroxyguanidine tosylate] | 11 1000 × (Δabs 295 nm) min^−1
N=C(NO)NN=CCc1ccccc1 [PR13, N-(Phenylethylideneamino)-N′-hydroxyguanidine tosylate] | 3 1000 × (Δabs 295 nm) min^−1
N=C(NO)N/N=C/c1cccn1-c1ccc(Cl)cc1 [PR15, N-[1-(4-Chlorophenyl)-pyrrolyl-2-methyleneamino(]-N′-hydroxyguanidine tosylate] | 7 1000 × (Δabs 295 nm) min^−1
N=C(NO)N/N=C/c1nccs1 [PR16, N-(Thiazolyl-2-methyleneamino)-N′-hydroxyguanidine tosylate] | 13 1000 × (Δabs 295 nm) min^−1
N=C(NO)NN=CCOc1c(Cl)cccc1Cl [PR17, N-(2,6-Dichlorophenoxyethylideneamino)-N′-hydroxyguanidine bromide] | −2 1000 × (Δabs 295 nm) min^−1
Cc1c(/C=N/NC(=N)NO)sc2ccccc12 [PR18, N-(3-Methylbenzo[b]thienyl-2-methyleneamino)-N'-hydroxyguanidine tosylate] | 43 1000 × (Δabs 295 nm) min^−1
N=C(NO)N/N=C/c1cc[n+](O)cc1 [PR19, N-(N-Oxypyridyl-4-methyleneamino)-N′-hydroxyguanidine tosylate] | 5 1000 × (Δabs 295 nm) min^−1
Cc1nn(C)c(Cl)c1/C=N/NC(=N)NO [PR20, N-(5-Chloro-1,3-dimethylpyrazolyl-4-methyleneamino)-N′-hydroxyguanidine tosylate] | 13 1000 × (Δabs 295 nm) min^−1

Same assay, conditions: as disclosed in Example 7

Structure (SMILES) | activity / capacity to undergo reduction (reaction A), in words
COc1ccc(/C=N/NC(=N)NO)c(OC)c1 [DWO3, reference compound] | moderate capacity
